Where two headings read alike, the source gives them in different places.
Key:
[1] = Single ascending dose plasma pharmacokinetics in healthy volunteers; assay type: in vivo; conditions: human
Experimental: In the single-dose phase, participants were randomized 6:2 to paltusotine (1.25, 2.5, 5, 10, 20, 40, and 60 mg) or placebo in 7 cohorts (S1 to S7). Cohorts comparing oral bioavailability of solution versus capsules and the effect of a standardized high-fat, high-calorie breakfast on oral bioavailability of the capsule formulation employed the 10 mg dose level. In the multiple-dose phase, participants were randomized 6:3 to once-daily oral paltusotine capsules or placebo at doses of 5 mg for 7 days (M1, Day Last = Day 7), and 10, 20, and 30 mg daily for 10 days (M2, M3, M4, Day Last = Day 10). The initial starting dose of 1.25 mg in the single-dose phase was selected for this study based on nonclinical pharmacologic activity, pharmacokinetics, and safety studies. Subsequent doses were either specified in the protocol or were selected by the safety review committee responsible for the safety oversight of the study.
Single-dose cohorts: Plasma samples were collected on Day 1 (pre-dose, every 15 min up to 90 min post-dose, then at 2, 3, 4, 6, 8, 10, 12, 18, 24, 48, 72, 96, 120, and 144 h post-dose). Multiple-dose cohorts: For the 5 mg cohort, plasma samples were collected on Day 1 (pre-dose, every 15 min up to 90 min post-dose, then at 2, 3, 4, 6, 8, 10, 12, and 18 h post-dose), Days 2–6 (pre-dose and 2 h post-dose), Day 7 (same time points as Day 1, followed by samples at 18, 24, 48, 72, 96, 120, and 144 h post-dose). For all other multiple-dose cohorts, plasma samples were collected on Day 1 (pre-dose, every 15 min up to 90 min post-dose, then at 2, 3, 4, 6, 8, 10, 12, and 18 h post-dose), Days […] (same time points as Day 1, followed by samples at 18, 24, 48, 72, 96, 120, 144, 192, and 240 h post-dose).
Plasma pharmacokinetic sample analysis for paltusotine was determined using validated procedures by CPR Pharma Services (Thebarton, Australia). Briefly, plasma paltusotine concentrations were determined by high-pressure liquid chromatography (HPLC) coupled with tandem mass spectrometry detection (MS/MS). Deuterated paltusotine was used as an internal standard. Supported liquid extraction was used to extract paltusotine and the internal standard. The analyte was separated by HPLC using an ACE C18-AR column (Advanced Chromatography Technologies, Ltd, Aberdeen, Scotland), and the eluates were monitored by an API 4000™ LC–MS/MS System (Sciex, Framingham, MA) in positive multiple reaction monitoring mode. The extract was then assayed against a calibration curve. The data were acquired and integrated by the data acquisition software Analyst® (Sciex), linked directly to the API 4000™ LC–MS/MS System, and then processed using Watson LIMS™ software (Thermo Scientific, Waltham, MA), where applicable. The calibration range was 0.100 to 100 ng/mL using 100 μL of plasma, with a lower limit of quantification of 0.100 ng/mL. The inter-assay accuracy was 94% to 100%, and the inter-assay precision (% CV) was between 6.1% and 15%.
For assessing pharmacokinetics of paltusotine, the single-dose pharmacokinetic population included all randomized participants who received any amount of study drug with sufficient plasma concentration data. For the multiple-dose cohorts, only participants who received all doses were included. The relative bioavailability of the capsule formulation was determined by comparing its pharmacokinetic parameters with those of the solution formulation at the 10 mg dose. Food effect was determined at the same dose by comparing pharmacokinetic parameters in the fasting state to those when paltusotine was administered with a high-fat, high-calorie meal. For both formulation and food effect, ANOVA with treatment as a fixed effect and subject as a random effect was performed. Data for peak concentration (Cmax), AUC0-last, and AUC0-inf were natural log-transformed.

SST2 = tested on: SST2; design: method as in ref 13 = [13]; 13. Betz SF Markison S Kusnetzow AK Athanacio JD Rico-Bautista E Madan A Suppression of growth hormone and insulin-like growth factor 1 in rats after oral administration of CRN00808, a small molecule; conditions: cited from earlier work
[2] = design: method as in doi:10.1530/endoabs.70.AEP627; conditions: separate study, cited from earlier work
[3] = oral, single dose 40 mg capsules, fasted, mean ± SD
[4] = oral, single dose 60 mg capsules, fasted, mean ± SD
[5] = single dose 1.25 mg oral solution, fasted, mean ± SD
[6] = single dose 2.5 mg oral solution, fasted, mean ± SD
[7] = single dose 5 mg oral solution, fasted, mean ± SD
[8] = single dose 10 mg oral solution, fasted, mean ± SD
[9] = single dose 20 mg oral solution, fasted, mean ± SD

Cl.N#Cc1cccc(-c2ccc3ncc(-c4cc(F)cc(F)c4)c(N4CCC(N)CC4)c3c2)c1O [paltusotine, 3-[4-(4-Aminopiperidin-1-yl)-3-(3,5-difluorophenyl)quinolin-6-yl]-2-hydroxybenzonitrile hydrochloride]
half-life ([1]; oral, overall summary (abstract), read-out: half-life of elimination (converted)): ~30 h | half-life ([1]; oral, sampling up to 144 h post-dose (single-dose cohorts and 5 mg multiple-dose cohort), range, read-out: t1/2 (converted)): 22 to 34 h | AUC(0-inf) [1, 3]: 2650 ± 1200 ng·h/mL | Cmax [1, 3]: 185 ± 118 ng/mL | Tmax ([1]; oral, single dose 40 mg capsules, fasted, mean ± SD, read-out: Tmax): 3.4 ± 1.1 h | half-life ([1]; oral, single dose 40 mg capsules, fasted, mean ± SD, read-out: t1/2 (converted)): 27 ± 3.1 h | AUC(0-inf) [1, 4]: 2300 ± 1060 ng·h/mL | Cmax [1, 4]: 154 ± 77.6 ng/mL | Tmax ([1]; oral, single dose 60 mg capsules, fasted, mean ± SD, read-out: Tmax): 3 ± 1.2 h | half-life ([1]; oral, single dose 60 mg capsules, fasted, mean ± SD, read-out: t1/2 (converted)): 25 ± 2.1 h | AUC(0-inf) [1, 5]: 122 ± 25.7 ng·h/mL | Cmax [1, 5]: 9.81 ± 1.56 ng/mL | Tmax ([1]; single dose 1.25 mg oral solution, fasted, mean ± SD, read-out: Tmax): 1.3 ± 0.44 h | half-life ([1]; single dose 1.25 mg oral solution, fasted, mean ± SD, read-out: t1/2 (converted)): 22 ± 5.5 h | AUC(0-inf) [1, 6]: 320 ± 66.3 ng·h/mL | Cmax [1, 6]: 22.7 ± 4.74 ng/mL | Tmax ([1]; single dose 2.5 mg oral solution, fasted, mean ± SD, read-out: Tmax): 1.6 ± 0.8 h | half-life ([1]; single dose 2.5 mg oral solution, fasted, mean ± SD, read-out: t1/2 (converted)): 29 ± 9 h | AUC(0-inf) [1, 7]: 590 ± 93.7 ng·h/mL | Cmax [1, 7]: 48.1 ± 7.05 ng/mL | Tmax ([1]; single dose 5 mg oral solution, fasted, mean ± SD, read-out: Tmax): 1.3 ± 0.41 h | half-life ([1]; single dose 5 mg oral solution, fasted, mean ± SD, read-out: t1/2 (converted)): 25 ± 9.4 h | AUC(0-inf) [1, 8]: 1650 ± 464 ng·h/mL | Cmax [1, 8]: 95.2 ± 19.3 ng/mL | Tmax ([1]; single dose 10 mg oral solution, fasted, mean ± SD, read-out: Tmax): 2.2 ± 1.3 h | half-life ([1]; single dose 10 mg oral solution, fasted, mean ± SD, read-out: t1/2 (converted)): 29 ± 4.3 h | AUC(0-inf) [1, 9]: 2960 ± 963 ng·h/mL | Cmax [1, 9]: 167 ± 29.1 ng/mL | Tmax ([1]; single dose 20 mg oral solution, fasted, mean ± SD, read-out: Tmax): 1.9 ± 1 h | half-life ([1]; single dose 20 mg oral solution, fasted, mean ± SD, read-out: t1/2 (converted)): 29 ± 5 h | Tmax ([1]; single-dose oral solution, fasted, range across 1.25-20 mg, read-out: Tmax (time of median peak concentrations)): 1.3 to 2.2 h | half-life ([1]; single-dose oral solution, fasted, range across 1.25-20 mg, read-out: apparent terminal elimination t1/2): 22 to 29 h | selectivity for SST2 over other somatostatin receptor subtypes (SST2): > 4000 fold | EC50 (SST2; read-out: SST2 agonist EC50): 0.25 nM | mean absolute oral bioavailability ([2]; oral solution): 70% | t1/2 after intravenous administration ([2]; sampling up to 144 h): 29 h
